Usually melting point stands for the temperature, or range, at which the solid turns liquid.

The results in this text go back to patent US6461822B2, “Methods of screening compounds for their ability to inhibit the production of inflammatory cytokines” (Pfizer Inc., priority 1998, dated 2002).

Data set [1] deals with ATP-induced IL-1β production. The data set is described as follows: IL-1β production assay, ELISA method (ATP-induced IL-1β production by LPS-activated human monocytes). The format is cell-based. The conditions noted are these: for ATP-induced IL-1β production: human monocytes treated continuously with agent, FIG. 2A. As for the experimental part: IL-1β production assay—ELISA method. Human monocytes were isolated from heparinized blood collected from normal volunteers. 100 ml of blood was diluted with 20 ml of RPMI 1640 medium that contained 5% FBS, 25 mM Hepes, pH 7.3, 2 mM glutamine, and 1% penicillin/streptomycin (Maintenance Medium). 30 ml of this suspension then was layered onto 15 ml of Lymphocyte Separation Medium (Organo Technicon) and centrifuged for 30 min at 1400 rpm at room temperature in a clinical centrifuge. The resulting mononuclear cell layer was harvested, diluted with Maintenance Medium, and the cells were pelleted by centrifugation. The recovered cells were washed with Maintenance Medium by repeated centrifugation. Each well of a 96 well plate was seeded with 2×10^5 mononuclear cells in 0.1 ml of Maintenance Medium; monocytes were allowed to adhere for 2 hr, then the medium (containing non-adherent cells) was replaced with 0.1 ml of fresh medium, and the monocytes were incubated overnight at 37° C. Monocytes were activated with 10 ng/ml of LPS (E. coli; serotype 055:B5) for 2 hr after which the medium was replaced with 0.1 ml of RPMI 1640, 20 mM Hepes, pH 6.9, 100 units/ml penicillin, 100 μg/ml streptomycin, 1% FBS (Release Medium) containing the indicated concentration of test agent; compounds were dissolved in DMSO and the final DMSO concentration in all wells was maintained at 0.2%. […] Cells subsequently were removed by centrifugation, media supernatants were harvested, and IL-1β levels within the media samples were determined with a specific ELISA kit (R and D Systems); each data point is the average of quadruplicate determinations.

For data set [2], the system named is soluble polypeptides of human monocytes (31, 32, 56 kDa). The data set is described as follows: Identification of DASU binding proteins: labeling of monocyte polypeptides by [14C]DASUs. As to conditions: [14C]labeled ligand 100 nM to 10 μm; FIG. 3. As for the experimental part: Identification of DASU binding proteins. Human monocytes (isolated as described above and plated on 6 cm dishes) were treated with [^14C]Compound 1 in 3 ml of Release Medium (devoid of FBS) for 60 min after which cells were washed twice with 5 ml of Release Medium containing 5% FBS and suspended in 1 ml of 25 mM Hepes, pH 7, 150 mM NaCl, 1 μg/ml pepstatin, 1 μg/ml leupeptin, containing 0.5% saponin. Lysates were clarified by ultracentrifugation and the recovered soluble fractions were exchanged into 10 mM Tris, pH 8, containing 1 μg/ml each of pepstatin and leupeptin with the use of Centricon 30 concentration units. Final concentrates were lyophilized and then solubilized in SDS sample buffer.

The subject of data set [3] is porcine liver carboxylesterase. In words: in vitro carboxylesterase enzyme assay with p-nitrophenyl propionate. The conditions noted are these: co-incubation with 100 μM.
Another data set deals with T1, rDBP-32 (Homo sapiens, UniProt O00299).
T1 construct: cleaved with thrombin to yield full-length rDBP-31 and rDBP-32 polypeptides; GST (N, cleaved yes); made in house; host or cells: E. coli (as for DBP-31: BL21 [DE3], pGEX2T)
In words: Labeling rDBPs with [14C]Compound 2 (SDS PAGE, phosphorimager). The format is binding. As to conditions: FIG. 7A. From the text:
(§1) Labeling rDBPs. […].

For data set [4], the target named is bacterial glutathione S-transferase (Schistosoma japonicum, UniProt P08515). It is filed as binding. The conditions noted are these: identical conditions; FIG. 7A.
Source text: as §1

Chain of bacterial glutathione S-transferase (P08515 2-218 limits assumed): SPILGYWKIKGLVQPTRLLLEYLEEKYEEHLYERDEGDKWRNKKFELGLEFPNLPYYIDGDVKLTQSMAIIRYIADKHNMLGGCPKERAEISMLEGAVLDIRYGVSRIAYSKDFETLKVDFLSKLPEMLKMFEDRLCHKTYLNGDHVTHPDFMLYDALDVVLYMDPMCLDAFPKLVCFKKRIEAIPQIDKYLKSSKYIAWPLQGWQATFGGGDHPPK

As to `O=[N+]([O-])c1ccc(OCC2CO2)cc1` (centres unmarked) [2-(4-nitro-phenoxymethyl)-oxirane, reference compound], the “ATP-induced IL-1β production” value in data set [1] is listed as “did not inhibit”.
With `CC(C)c1cc(Cl)cc(C(C)C)c1NC(=O)NS(=O)(=O)c1cc(C2CO2)ccc1F` (centres unmarked) [Compound 1, 1-(4-Chloro-2,6-diisopropyl-phenyl)-3-[2-fluoro-5-oxiranylbenzene-sulfonyl]-urea], the melting point lay in the range of 126 to 130 °C. The “radiolabeled polypeptides in soluble fraction of monocyte extracts” value in data set [2] is given as “several radiolabeled polypeptides were detected”. In addition, in data set [1] (FIG. 3B), the “IL-1 production of [14C]DASU-treated cells exposed to ATP” value was “dose-dependent inhibition”. The “ATP-induced IL-1β production” value in data set [1] was “dose-dependent inhibition”.
Turning to `O=C(Nc1c2c(cc3c1CCC3)CCC2)NS(=O)(=O)c1cc(C2CO2)ccc1F` (centres unmarked) [Compound 2, 1-(1,2,3,5,6,7-Hexahydro-s-indacen-4-yl)-3-[2-fluoro-5-oxiranyl-benzenesulfonyl]-urea], in data set [2], the “radiolabeled polypeptides in soluble fraction of monocyte extracts” value is reported as “several radiolabeled polypeptides were detected”. Also, the “reduction of observed carboxylesterase enzymatic activity” value in data set [3] amounted to 67%. Moreover, in data set [1], the “ATP-induced IL-1β production” value is given as “dose-dependent inhibition”. In addition, in data set [1] (pretreated 60 min, then ATP without compound, FIG. 2B), the “IL-1β production after pretreatment and ATP in absence of compound” value is on record as “remained suppressed”. The “labeling of rDBP-32” value at rDBP-32 was “labeled by [^14C]Compound 2 in a concentration dependent manner”. Besides, in data set [4], the “labeling of bacterial glutathione S-transferase” value is reported as “not labeled”.
